The record followed here is patent US6831106B1, “Vitamin D analogues” (Galderma Research & Development, S.N.C., priority 1999, dated 2004).

The target of the first test is T1, human VDR receptor (Homo sapiens, UniProt P11473).
T1 construct: expressed in transfected cells; host or cells: HeLa
T1 sequence (P11473 1-427): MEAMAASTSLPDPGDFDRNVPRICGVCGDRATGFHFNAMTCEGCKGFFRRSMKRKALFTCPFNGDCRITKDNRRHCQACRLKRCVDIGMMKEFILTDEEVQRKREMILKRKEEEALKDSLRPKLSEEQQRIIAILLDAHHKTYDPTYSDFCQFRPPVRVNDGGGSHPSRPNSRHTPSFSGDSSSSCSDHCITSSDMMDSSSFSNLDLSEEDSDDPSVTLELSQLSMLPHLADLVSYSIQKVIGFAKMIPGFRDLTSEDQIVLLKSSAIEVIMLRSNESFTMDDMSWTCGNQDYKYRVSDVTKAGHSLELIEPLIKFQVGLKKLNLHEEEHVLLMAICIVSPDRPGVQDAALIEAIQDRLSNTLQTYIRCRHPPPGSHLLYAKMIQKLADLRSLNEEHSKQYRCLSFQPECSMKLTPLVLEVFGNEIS
Put plainly: VDR agonist activity, co-transfection of human VDR expression vector and p240Hase-CAT reporter in HeLa cells. It counts as cell-based. Particulars: HeLa cell line, CAT reporter under rat 24-hydroxylase promoter, 18 hours treatment, ELISA; read-out: AC 50 (dose required to achieve 50% of the maximum activity of the product). How it is done: By way of example, the VDR agonist activity can be tested on the HeLa cell line by co-transfection with an expression vector for the human VDR receptor and the reporter plasmid p240Hase-CAT which contains the region −1399 to +76 of rat 24-hydroxylase promoter, cloned upstream of the frame encoding the chloramphenicol-acetyl-transferase (CAT)′gene. 18 hours after co-transfection, the test product is added to the medium. 18 hours after treatment, assay of the CAT activity in the cell lysates is carried out by an ELISA test. The results are expressed as percentages of the effect normally observed with 10^−7M calcitriol.
The agonist activity can also be characterized in this co-transfection system, by determining the dose required to reach 50% of the maximum activity of the product (AC50).
The VDR agonist activity was tested on the HeLa cell line, by co-transfection of an expression vector of the human VDR receptor and of the reporter plasmid p240Hase-CAT which contains the region −1399 to +76 of the rat 24-hydroxylase promoter, cloned upstream of the coding frame of the chloramphenicol-acetyl-transferase (CAT) gene. 18 hours after co-transfection, the test product is added to the medium. After treatment for 18 hours, the CAT activity of the cell lysates is assayed by an ELISA test. The results are expressed as a percentage of the effect normally observed with 10^−7 M of calcitriol.
The agonist activity was characterized in this co-transfection system by determining the dose required to achieve 50% of the maximum activity of the product (AC50).
(In general: ELISA stands for enzyme-linked immunosorbent assay.)
Take `CCC(O)(CC)c1ccc(-c2cccc(OCc3ccc(CO)c(CO)c3)c2)c(C)c1` [Example 3, {5-4′-[(1-Ethyl-1-hydroxypropyl)-2′-methylbiphenyl-3-yloxymethyl]-2-hydroxymethylphenyl}methanol]: the AC50 turned out to be 470 nM.

With `CCC(O)(CC)c1ccc(-c2cccc(SCc3ccc(CO)c(CO)c3)c2)c(C)c1` [Example 10, {4-[4′-(1-Ethyl-1-hydroxypropyl)-2′-methylbiphenyl-3-ylsulphanylmethyl]-2-hydroxymethylphenyl}methanol], the AC50 came out at 2040 nM.

For `CCC(O)(CC)c1ccc(-c2cccc(OCc3ccc(CO)c(CO)c3)c2C)c(C)c1` [Example 11, {4-[4′-(1-Ethyl-1-hydroxypropl)-2,2′-dimethylbiphenyl-3-yloxymethyl]-2-hydroxymethylphenyl}methanol], the AC50 stood at 291 nM.

`CCC(O)(CC)c1ccc(-c2cc(OCc3ccc(CO)c(CO)c3)ccc2C)c(C)c1` [Example 16, {4-[4′-(1-Ethyl-1-hydroxypropyl)-6,2′-dimethylbiphenyl-3-yloxymethyl]-2-hydroxymethylphenyl}methanol]: the AC50 worked out at 46 nM.

As to `CCC(O)(CC)c1cc(C)c(-c2cc(OCc3ccc(CO)c(CO)c3)ccc2C)c(C)c1` [Example 17, {4-[4′-(1-Ethyl-1-hydroxypropyl)-6,2′,6′-trimethylbiphenyl-3-yloxymethyl]-2-hydroxymethylphenyl}methanol], the AC50 worked out at 194 nM.

For `CCC(O)(CC)c1ccc(-c2cc(OCc3ccc(CO)c(CO)c3)ccc2C)cc1` [Example 18, {4-[4′-(1-Ethyl-1-hydroxypropyl)-6-methylbiphenyl-3-yloxymethyl]-2-hydroxymethylphenyl}methanol], the AC50 came to 133 nM.

On to `CCC(O)(CC)c1ccc(-c2cccc(COc3ccc(CO)c(CO)c3)c2)c(C)c1` [Example 22, {4-[4′-(1-Ethyl-1-hydroxypropyl)-2′-methylbiphenyl-3-ylmethoxy]-2-hydroxymethylphenyl}methanol], for which the AC50 is 451 nM.

The test system of another test is seborrhoeic scalp. Put plainly: antiseboric lotion applied to a seborrhoeic scalp. In kind it is in vivo. The conditions noted are these: lotion with 0.030 g compound per 100 g, applied twice a day, within a period of 2 to 6 weeks.
As to `CCCC(O)(CCC)c1ccc(-c2cccc(OCc3ccc(CO)c(CO)c3)c2C)c(C)c1` [Example 12, {2-Hydroxymethyl-4-[4′-(1-hydroxy-1-propylbutyl)-2,2′-dimethylbiphenyl-3-yloxymethyl]phenyl}methanol], the “improvement of seborrhoeic scalp” value is listed as “significant improvement”.
